Where a chain is given by its changes, count along the chain named. Primed or numbered codes have the meaning given here. The star is where a group is joined. aldehyde′ = not defined here; Cbz = O=C(OCc1ccccc1)*; Moc = COC(=O)*
Columns and labels:
[1] = logarithmic stability constant of the cation/chelator complex; ionic strength of 0.1 M, 25° C.; cited from earlier work
[2] = target: Protease4 (subtilisin BPN′) (Bacillus amyloliquefaciens, UniProt P00782, Y324L); experiment: Storage stability of Protease4 in liquid ADW detergent (residual protease activity, N,N-dimethylcasein hydrolysis); format: biochemical; settings: Detergent A, Example 2
Source text: (§1) Chemicals used as buffers and substrates were commercial products of at least reagent grade. Protease1, Protease2, Protease3, and Protease4, as used in the examples below, are subtilisin proteases. Protease1 has the amino acid sequence shown in SEQ ID NO: 1 (subtilisin 309). Protease2 has the amino acid sequence shown in SEQ ID NO: 2 (variant of subtilisin 309). Protease3 has the amino acid sequence shown in SEQ ID NO: 3 (variant of subtilisin 309). Protease4 has the amino acid sequence shown in SEQ ID NO: 4 (subtilisin BPN′).
Various peptide aldehydes were produced, all with a purity >80%. The peptide aldehydes were dissolved in DMSO to a concentration of 10 mg/ml before use.
(§2) To detergent A from Example 1, the following amount of enzyme and different inhibitors (peptide aldehydes) were added, all samples normalized to 100 g of detergent. […] Three subtilisin proteases were used: Protease1, Protease2, and Protease4, all in concentration of 0.04 g active enzyme protein per gram of enzyme solution.
(§3) The detergents were placed in closed glasses at 37° C. for 2 weeks. Residual activity of protease was measured (by comparison to a reference stored at −18° C.) using standard enzyme analytical method (protease activity measured by hydrolysis of N,N-dimethylcasein at 40° C., pH=8.3).

[3] = target: Protease3 (variant of subtilisin 309) (Lederbergia lenta, UniProt P29600, INS97E); experiment: Storage stability of Protease3 in liquid ADW detergent (residual protease activity, N,N-dimethylcasein hydrolysis); format: biochemical; settings: Protease3, no inhibitor
Procedure: as §1, with “Protease2 has the amino acid sequence shown in SEQ ID NO: 2 (variant of subtilisin 309). Protease3 has the amino acid sequence shown in SEQ ID NO: 3 (variant of subtilisin 309).” left out
(§4) The peptide aldehyde hydrosulfite adduct described above was dissolved in 40% propylene glycol and water was added to make a 24% w/w solution of the adduct.
(§5) [formula] […] Protease2 and Protease3 were used in concentrations of 0.04 g active enzyme protein per gram of enzyme solution.
as §3

[4] = target: Protease2 (variant of subtilisin 309) (Lederbergia lenta, UniProt P29600, DUP96-96/S97D); experiment: Storage stability of Protease2 in liquid ADW detergent (residual protease activity, N,N-dimethylcasein hydrolysis); format: biochemical; settings: Protease2, no inhibitor
Procedure: as §1, with “Protease2 has the amino acid sequence shown in SEQ ID NO: 2 (variant of subtilisin 309). Protease3 has the amino acid sequence shown in SEQ ID NO: 3 (variant of subtilisin 309).” left out
as §4, §5, §3, §2

[5] = target: T1, Protease1 (subtilisin 309) (Bacillus lentus); experiment: cell-based or functional assay
T1 chain: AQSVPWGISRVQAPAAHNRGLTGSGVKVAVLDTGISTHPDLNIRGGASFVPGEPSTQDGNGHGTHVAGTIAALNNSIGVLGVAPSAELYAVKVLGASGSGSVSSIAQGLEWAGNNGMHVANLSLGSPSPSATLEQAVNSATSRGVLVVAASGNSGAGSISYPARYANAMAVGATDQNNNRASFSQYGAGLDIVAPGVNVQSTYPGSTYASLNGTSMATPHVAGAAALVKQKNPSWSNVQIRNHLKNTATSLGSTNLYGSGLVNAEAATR

[6] = target: T2, Protease2 (variant of subtilisin 309) (Artificial sequence); experiment: cell-based or functional assay
T2 chain: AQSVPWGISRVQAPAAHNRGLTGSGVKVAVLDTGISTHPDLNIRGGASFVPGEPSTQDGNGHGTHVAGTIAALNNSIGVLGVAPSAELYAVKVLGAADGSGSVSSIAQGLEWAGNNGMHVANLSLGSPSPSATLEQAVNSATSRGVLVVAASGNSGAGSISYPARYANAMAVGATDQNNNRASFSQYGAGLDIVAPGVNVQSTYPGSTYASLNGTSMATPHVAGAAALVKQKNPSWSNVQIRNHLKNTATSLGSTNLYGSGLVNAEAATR

[7] = target: T3, Protease4 (subtilisin BPN′) (Artificial sequence); experiment: cell-based or functional assay
T3 chain: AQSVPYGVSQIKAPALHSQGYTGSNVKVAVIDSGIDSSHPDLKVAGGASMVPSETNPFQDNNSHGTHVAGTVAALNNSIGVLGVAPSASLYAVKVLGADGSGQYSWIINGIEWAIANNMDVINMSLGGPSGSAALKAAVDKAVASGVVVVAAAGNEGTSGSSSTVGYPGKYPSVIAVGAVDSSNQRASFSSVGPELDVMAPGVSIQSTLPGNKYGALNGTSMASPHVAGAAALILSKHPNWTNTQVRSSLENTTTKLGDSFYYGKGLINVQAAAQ

[8] = target: T4, Protease1 (subtilisin 309) (Lederbergia lenta, UniProt P29600); experiment: Storage stability of Protease1 in liquid ADW detergent (residual protease activity, N,N-dimethylcasein hydrolysis); format: biochemical; settings: Protease1, no inhibitor, Detergent A, Example 2
T4 sequence (P29600 1-269): T1 chain
Procedure: as §1, with “Protease2 has the amino acid sequence shown in SEQ ID NO: 2 (variant of subtilisin 309). Protease3 has the amino acid sequence shown in SEQ ID NO: 3 (variant of subtilisin 309).” left out
as §2, §3

Protease3 (variant of subtilisin 309), sequence (P29600 other isoform, or with tags, fused parts or gaps INS97E): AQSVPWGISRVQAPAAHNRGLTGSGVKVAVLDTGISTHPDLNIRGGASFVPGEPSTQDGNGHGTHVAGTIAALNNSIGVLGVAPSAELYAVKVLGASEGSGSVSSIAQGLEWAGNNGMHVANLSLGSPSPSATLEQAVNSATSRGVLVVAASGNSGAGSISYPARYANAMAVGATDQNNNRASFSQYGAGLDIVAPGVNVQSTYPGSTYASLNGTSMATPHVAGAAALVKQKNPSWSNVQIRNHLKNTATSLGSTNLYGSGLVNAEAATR

Molecule: O=C(O)CC(NCCNC(CC(=O)O)C(=O)O)C(=O)O (mixture of isomers) [EDDS, ethylenediaminedisuccinic acid]
- Log KCa [1]: 4.6

Molecule: O=P(O)(O)CN(CP(=O)(O)O)CP(=O)(O)O [AMP, Amino-tris-(methylene-phosphonic acid)]
- Log KCa [1]: 1.7

Molecule: O=C([O-])[O-].[Na+].[Na+] [Carbonate, sodium carbonate]
- Log KCa [1]: 7.8

Molecule: O=C(O)CC(O)(CC(=O)O)C(=O)O [Citric acid]
- Log KCa [1]: 3.5

Molecule: O=P(O)(O)CN(CCN(CP(=O)(O)O)CP(=O)(O)O)CCN(CP(=O)(O)O)CP(=O)(O)O [DTPMP, Diethylenetriamine Penta(Methylene Phosphonic acid)]
- Log KCa [1]: 7.1

Molecule: O=C(O)CN(CCN(CC(=O)O)CC(=O)O)CC(=O)O [EDTA, Ethylenediaminetetraacetic acid]
- Log KCa [1]: 10.7

Molecule: O=C([O-])CC[C@@H](C(=O)[O-])N(CC(=O)[O-])CC(=O)[O-].[Na+].[Na+].[Na+].[Na+] [GLDA, L-glutamic acid N,N-diacetic acid tetra sodium salt]
- Log KCa [1]: 5.2

Molecule: CC(O)(P(=O)(O)O)P(=O)(O)O [HEDP, 1-Hydroxy Ethylidene-1,1-Diphosphonic Acid]
- Log KCa [1]: 6

Molecule: O=C(O)CC(NC(CC(=O)O)C(=O)O)C(=O)O (stereo not drawn) [IDS, iminodisuccinic acid]
- Log KCa [1]: 5.2

Molecule: CC(C(=O)O)N(CC(=O)O)CC(=O)O (stereo not drawn) [MGDA, methylglycinediacetic acid]
- Log KCa [1]: 7

Molecule: O=C(O)CN(CC(=O)O)CC(=O)O [NTA, Nitrilotriacetic acid]
- Log KCa [1]: 6.4

Molecule: O=P(O)(O)CN(CP(=O)(O)O)CP(=O)(O)O [NTMP, Nitrilo trimethylene phosphonic acid]
- Log KCa [1]: 7.6

Molecule: O=P(O)(O)OP(=O)(O)O [Pyrophosphate]
- Log KCa [1]: 5

Molecule: O=P(O)(O)OP(=O)(O)OP(=O)(O)O [STPP, sodium tripolyphosphate]
- Log KCa [1]: 5.36

Molecule: Moc-Val-Ala-Leu-H (Moc-Val-Ala-Leu-{aldehyde′}; reading uncertain; also: printed as Moc-Val-Ala-Leu-H) [peptide aldehyde, Moc is methoxycarbonyl]
- Residual protease activity after two weeks at 37° C. ([2]; Protease4 with 3.3 mg peptide aldehyde/100 g (mole ratio 3.2)): 57%

B1: Protease3: subtilisin protease, SEQ ID NO: 3 (variant of subtilisin 309) (protein)
chain: T2 chain with A97S, D98E
modifications: variant of SEQ ID NO 1
- Residual protease activity after two weeks at 37° C. ([3]; Detergent A (invention)): 6%
- Residual protease activity after two weeks at 37° C. ([3]; Detergent B (invention)): 44%
- Residual protease activity after two weeks at 37° C. ([3]; Detergent C (reference)): 74%

B2: Protease2: subtilisin protease, SEQ ID NO: 2 (variant of subtilisin 309) (protein)
chain: T2 chain
modifications: variant of SEQ ID NO 1
- Residual protease activity after two weeks at 37° C. ([4]; Detergent A (invention), Example 1): 1%
- Residual protease activity after two weeks at 37° C. ([4]; Detergent A, Example 2): 1%
- Residual protease activity after two weeks at 37° C. ([4]; Detergent B (invention), Example 1): 10%
- Residual protease activity after two weeks at 37° C. ([4]; Detergent C (reference), Example 1): 76%

Molecule: Cbz-Gly-Ala-Tyr-aldehyde (also: C-terminal aldehyde on Tyr) [Cbz-Gly-Ala-Tyr-H]
- Residual protease activity after two weeks at 37° C. [5]: 81%
- Residual protease activity after two weeks at 37° C. [6]: 86%

Molecule: Moc-Val-Ala-Leu-aldehyde (also: C-terminal aldehyde on Leu) [Moc-Val-Ala-Leu-H]
- Residual protease activity after two weeks at 37° C. [7]: 57%

B3: Protease4: subtilisin protease, SEQ ID NO: 4 (subtilisin BPN′) (protein)
chain: T3 chain
modifications: BPN′ variant
- Residual protease activity after two weeks at 37° C. ([2]; Protease4, no inhibitor): 5%

B4: Protease1: subtilisin protease, amino acid sequence SEQ ID NO: 1 (subtilisin 309) (protein, listed as Bacillus lentus)
chain: T1 chain
- Residual protease activity after two weeks at 37° C. [8]: 25%

Reference: patent US10308899B2, “Liquid automatic dish washing detergent compositions” (Novozymes A/S, priority 2013, dated 2019)
